Data reported in the kinase profiling compilation of Christmann-Franck et al. (2016).

Columns and labels:
Assay in all cases: radiometric filter-binding kinase assay, Kinase HotSpot
Settings in all cases: compound 0.5 µM; ATP 10 µM
[1] = target: EPHA2 (human) (UniProt P29317)
[2] = target: CSNK2A1 (human) (UniProt P68400)
[3] = target: MAP3K3 (human) (UniProt Q99759)
[4] = target: MET (human) (UniProt P08581)
[5] = target: ALK (human) (UniProt Q9UM73)
[6] = target: DYRK1B (human) (UniProt Q9Y463)
[7] = target: PIM1 (human) (UniProt P11309)
[8] = target: MAP4K5 (human) (UniProt Q9Y4K4)
[9] = target: PRKD1 (human) (UniProt Q15139)
[10] = target: WNK3 (human) (UniProt Q9BYP7)
[11] = target: MAPK12 (human) (UniProt P53778)
[12] = target: MAPK11 (human) (UniProt Q15759)
[13] = target: CDC42BPB (human) (UniProt Q9Y5S2)
[14] = target: CSNK1G1 (human) (UniProt Q9HCP0)
[15] = target: CHEK2 (human) (UniProt O96017)
[16] = target: PRKCB1 (human) (UniProt P05771)
[17] = target: MAP3K8 (human) (UniProt P41279)
[18] = target: TXK (human) (UniProt P42681)
[19] = target: RPS6KA1 KD1 KD2 (human) (UniProt Q15418)
[20] = target: SGK2 (human) (UniProt Q9HBY8)
[21] = target: DCLK2 (human) (UniProt Q8N568)
[22] = target: ACVRL1 (human) (UniProt P37023)
[23] = target: FGFR4 (human) (UniProt P22455)
[24] = target: RPS6KA2 KD1 KD2 (human) (UniProt Q15349)
[25] = target: DYRK3 (human) (UniProt O43781)
[26] = target: TNK2 (human) (UniProt Q07912)
[27] = target: TEK (human) (UniProt Q02763)
[28] = target: PAK2 (human) (UniProt Q13177)
[29] = target: PRKX (human) (UniProt P51817)
[30] = target: STK17A (human) (UniProt Q9UEE5)
[31] = target: HIPK4 (human) (UniProt Q8NE63)
[32] = target: AKT1 (human) (UniProt P31749)
[33] = target: CAMK1 (human) (UniProt Q14012)
[34] = target: ULK2 (human) (UniProt Q8IYT8)
[35] = target: PHKG2 (human) (UniProt P15735)
[36] = target: NLK (human) (UniProt Q9UBE8)
[37] = target: EPHA4 (human) (UniProt P54764)
[38] = target: JAK1 JH1 catalytic (human) (UniProt P23458)
[39] = target: CAMK4 (human) (UniProt Q16566)
[40] = target: RPS6KA5 KD2 (human) (UniProt O75582)
[41] = target: CDK2 CCNA2 (human) (UniProt P24941+P20248)

Sequence of JAK1 JH1 catalytic (human) (P23458 whole entry, looked up): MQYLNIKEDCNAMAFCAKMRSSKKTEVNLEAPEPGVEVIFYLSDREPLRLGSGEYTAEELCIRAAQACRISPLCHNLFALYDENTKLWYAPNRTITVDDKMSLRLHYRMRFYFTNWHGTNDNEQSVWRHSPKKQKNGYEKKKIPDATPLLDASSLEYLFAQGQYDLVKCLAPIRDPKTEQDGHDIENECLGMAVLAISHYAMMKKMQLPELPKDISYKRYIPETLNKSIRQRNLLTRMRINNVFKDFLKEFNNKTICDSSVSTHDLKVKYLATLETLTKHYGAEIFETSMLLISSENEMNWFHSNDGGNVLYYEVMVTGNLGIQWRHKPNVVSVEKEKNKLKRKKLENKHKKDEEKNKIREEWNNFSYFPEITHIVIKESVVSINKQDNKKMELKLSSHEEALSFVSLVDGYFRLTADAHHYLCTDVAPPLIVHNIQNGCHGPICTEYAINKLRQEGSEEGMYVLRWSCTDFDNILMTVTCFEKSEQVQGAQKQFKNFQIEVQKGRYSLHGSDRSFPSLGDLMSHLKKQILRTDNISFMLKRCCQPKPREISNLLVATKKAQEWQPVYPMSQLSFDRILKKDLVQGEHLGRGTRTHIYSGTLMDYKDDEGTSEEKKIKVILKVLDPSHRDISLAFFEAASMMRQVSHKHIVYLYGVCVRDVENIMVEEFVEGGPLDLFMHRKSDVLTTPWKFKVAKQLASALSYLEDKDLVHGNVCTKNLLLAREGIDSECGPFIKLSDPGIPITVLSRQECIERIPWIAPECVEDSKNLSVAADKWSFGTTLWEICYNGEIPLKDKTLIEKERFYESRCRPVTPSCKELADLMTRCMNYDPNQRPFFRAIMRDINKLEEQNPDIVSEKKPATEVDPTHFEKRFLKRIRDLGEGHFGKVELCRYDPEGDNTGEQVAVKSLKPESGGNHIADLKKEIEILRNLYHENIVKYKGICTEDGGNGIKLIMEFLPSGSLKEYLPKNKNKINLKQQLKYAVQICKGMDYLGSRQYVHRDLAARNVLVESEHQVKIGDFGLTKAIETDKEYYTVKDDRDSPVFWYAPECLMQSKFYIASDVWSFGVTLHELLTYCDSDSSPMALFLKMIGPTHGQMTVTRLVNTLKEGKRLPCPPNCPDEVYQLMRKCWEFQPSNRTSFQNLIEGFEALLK
Sequence of PRKCB1 (human) (P05771 whole entry, looked up): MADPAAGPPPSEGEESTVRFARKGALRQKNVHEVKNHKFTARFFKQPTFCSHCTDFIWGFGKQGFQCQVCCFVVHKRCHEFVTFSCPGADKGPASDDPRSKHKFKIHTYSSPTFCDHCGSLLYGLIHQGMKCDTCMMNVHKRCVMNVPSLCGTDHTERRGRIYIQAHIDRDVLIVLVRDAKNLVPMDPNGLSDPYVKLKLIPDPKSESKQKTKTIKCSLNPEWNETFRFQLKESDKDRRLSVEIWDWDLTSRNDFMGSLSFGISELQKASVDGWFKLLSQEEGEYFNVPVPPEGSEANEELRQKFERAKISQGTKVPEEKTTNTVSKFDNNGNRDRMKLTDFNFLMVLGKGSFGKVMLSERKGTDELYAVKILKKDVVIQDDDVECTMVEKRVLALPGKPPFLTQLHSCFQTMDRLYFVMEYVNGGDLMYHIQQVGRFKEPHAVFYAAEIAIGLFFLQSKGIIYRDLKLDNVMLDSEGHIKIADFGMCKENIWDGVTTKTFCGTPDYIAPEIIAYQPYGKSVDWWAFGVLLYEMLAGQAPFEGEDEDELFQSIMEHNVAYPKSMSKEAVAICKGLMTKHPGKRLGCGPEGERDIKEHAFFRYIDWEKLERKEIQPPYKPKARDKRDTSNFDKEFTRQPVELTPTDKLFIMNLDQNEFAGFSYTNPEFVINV
Sequence of PRKX (human) (P51817 whole entry, looked up): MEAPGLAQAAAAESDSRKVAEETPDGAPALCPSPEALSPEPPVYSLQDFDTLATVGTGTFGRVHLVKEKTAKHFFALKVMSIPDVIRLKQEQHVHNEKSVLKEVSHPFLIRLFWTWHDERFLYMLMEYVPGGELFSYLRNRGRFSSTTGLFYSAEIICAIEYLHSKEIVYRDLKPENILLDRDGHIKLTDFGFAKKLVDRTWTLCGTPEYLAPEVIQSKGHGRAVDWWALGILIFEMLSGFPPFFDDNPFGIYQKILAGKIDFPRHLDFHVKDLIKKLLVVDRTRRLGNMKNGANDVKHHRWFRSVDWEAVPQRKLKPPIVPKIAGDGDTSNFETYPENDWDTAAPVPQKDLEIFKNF
Sequence of MAPK11 (human) (Q15759 whole entry, looked up): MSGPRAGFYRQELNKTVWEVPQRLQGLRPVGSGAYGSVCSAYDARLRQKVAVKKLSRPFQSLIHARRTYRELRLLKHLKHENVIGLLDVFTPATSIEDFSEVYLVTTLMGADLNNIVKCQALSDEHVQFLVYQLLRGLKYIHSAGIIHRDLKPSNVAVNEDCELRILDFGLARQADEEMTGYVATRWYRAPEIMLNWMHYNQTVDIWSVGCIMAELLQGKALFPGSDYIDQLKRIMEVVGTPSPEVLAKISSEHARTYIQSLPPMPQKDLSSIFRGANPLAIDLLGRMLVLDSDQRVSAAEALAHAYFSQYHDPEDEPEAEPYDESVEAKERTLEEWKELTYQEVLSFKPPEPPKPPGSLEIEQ
Sequence of EPHA2 (human) (P29317 whole entry, looked up): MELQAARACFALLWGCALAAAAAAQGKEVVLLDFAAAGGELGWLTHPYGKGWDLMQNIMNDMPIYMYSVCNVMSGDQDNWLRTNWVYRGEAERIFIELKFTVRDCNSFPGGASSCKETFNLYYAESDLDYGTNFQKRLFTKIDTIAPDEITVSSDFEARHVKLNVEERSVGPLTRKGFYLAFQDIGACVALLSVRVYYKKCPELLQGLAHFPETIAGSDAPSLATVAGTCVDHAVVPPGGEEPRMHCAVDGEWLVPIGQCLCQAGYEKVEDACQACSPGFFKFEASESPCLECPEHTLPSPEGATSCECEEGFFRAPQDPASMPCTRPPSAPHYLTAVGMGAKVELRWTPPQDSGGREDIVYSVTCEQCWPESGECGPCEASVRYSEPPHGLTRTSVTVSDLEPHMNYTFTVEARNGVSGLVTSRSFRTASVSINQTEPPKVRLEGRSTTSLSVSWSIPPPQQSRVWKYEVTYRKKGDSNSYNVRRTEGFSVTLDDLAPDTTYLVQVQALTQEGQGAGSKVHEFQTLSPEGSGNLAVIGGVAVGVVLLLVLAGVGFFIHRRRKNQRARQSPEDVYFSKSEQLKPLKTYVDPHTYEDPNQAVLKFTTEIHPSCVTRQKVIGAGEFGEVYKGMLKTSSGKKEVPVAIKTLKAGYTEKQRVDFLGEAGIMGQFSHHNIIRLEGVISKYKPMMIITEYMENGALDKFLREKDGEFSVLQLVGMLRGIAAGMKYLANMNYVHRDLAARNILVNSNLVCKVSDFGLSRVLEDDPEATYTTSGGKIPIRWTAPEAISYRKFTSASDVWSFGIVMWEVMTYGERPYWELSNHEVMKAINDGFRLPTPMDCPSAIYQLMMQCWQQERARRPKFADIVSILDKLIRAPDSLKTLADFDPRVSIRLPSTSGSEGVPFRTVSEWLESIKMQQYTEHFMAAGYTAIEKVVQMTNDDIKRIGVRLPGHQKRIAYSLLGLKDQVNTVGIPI
Sequence of ULK2 (human) (Q8IYT8 whole entry, looked up): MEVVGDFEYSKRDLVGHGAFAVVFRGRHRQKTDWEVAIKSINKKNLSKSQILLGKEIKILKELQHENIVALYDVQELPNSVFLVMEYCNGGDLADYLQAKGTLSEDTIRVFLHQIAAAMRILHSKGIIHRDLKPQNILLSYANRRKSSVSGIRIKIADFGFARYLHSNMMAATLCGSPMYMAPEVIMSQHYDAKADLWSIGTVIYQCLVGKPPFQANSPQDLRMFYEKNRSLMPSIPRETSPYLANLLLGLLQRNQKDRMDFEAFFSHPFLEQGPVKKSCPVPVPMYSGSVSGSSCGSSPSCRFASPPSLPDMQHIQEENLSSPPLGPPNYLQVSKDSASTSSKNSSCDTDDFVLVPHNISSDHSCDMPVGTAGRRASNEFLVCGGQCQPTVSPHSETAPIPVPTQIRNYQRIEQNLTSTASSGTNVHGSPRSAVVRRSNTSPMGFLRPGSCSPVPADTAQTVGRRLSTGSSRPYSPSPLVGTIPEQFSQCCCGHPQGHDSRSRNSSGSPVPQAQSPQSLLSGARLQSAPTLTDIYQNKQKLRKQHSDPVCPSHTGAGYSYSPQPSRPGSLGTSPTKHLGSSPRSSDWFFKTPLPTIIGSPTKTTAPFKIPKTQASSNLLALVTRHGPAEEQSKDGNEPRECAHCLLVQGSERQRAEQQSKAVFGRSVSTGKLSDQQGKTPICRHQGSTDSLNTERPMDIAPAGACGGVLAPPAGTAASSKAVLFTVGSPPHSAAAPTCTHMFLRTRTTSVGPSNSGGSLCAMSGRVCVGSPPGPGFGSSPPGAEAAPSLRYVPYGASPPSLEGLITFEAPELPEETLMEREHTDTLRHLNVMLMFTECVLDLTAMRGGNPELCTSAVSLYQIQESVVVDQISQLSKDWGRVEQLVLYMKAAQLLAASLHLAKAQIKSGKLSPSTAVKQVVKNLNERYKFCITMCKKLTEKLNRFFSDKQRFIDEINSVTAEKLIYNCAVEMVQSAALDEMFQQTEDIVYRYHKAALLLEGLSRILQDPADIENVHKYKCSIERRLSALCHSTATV
Sequence of PHKG2 (human) (P15735 whole entry, looked up): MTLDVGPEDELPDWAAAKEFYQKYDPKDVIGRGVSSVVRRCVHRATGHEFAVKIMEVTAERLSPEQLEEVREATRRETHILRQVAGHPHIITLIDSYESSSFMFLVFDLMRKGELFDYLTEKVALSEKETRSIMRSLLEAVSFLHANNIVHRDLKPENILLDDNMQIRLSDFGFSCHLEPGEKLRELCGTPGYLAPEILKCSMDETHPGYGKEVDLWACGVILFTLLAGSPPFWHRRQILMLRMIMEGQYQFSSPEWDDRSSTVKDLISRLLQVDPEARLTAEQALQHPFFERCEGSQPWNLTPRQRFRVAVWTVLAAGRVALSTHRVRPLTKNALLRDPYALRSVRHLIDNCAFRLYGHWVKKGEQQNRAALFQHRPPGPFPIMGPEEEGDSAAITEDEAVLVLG

For `COc1ccc2c(c[n+](C)c3c4cc5c(cc4ccc23)OCO5)c1OC`, the residual activity [1] was 97.4%, the residual activity [2] was 83.3% and the residual activity [3] was 101%. The residual activity [4] was 94.7%, the residual activity [5] was 105% and the residual activity [6] was 102%. The residual activity [7] was 97%, the residual activity [8] was 89.3% and the residual activity [9] was 100%. For the same compound, the residual activity [10] was 101%, the residual activity [11] was 100% and the residual activity [12] was 91.6%. For the same compound, the residual activity [13] was 107%, the residual activity [14] was 106% and the residual activity [15] was 96.5%. It also gave a residual activity [16] of 100%, a residual activity [17] of 91.3% and a residual activity [18] of 100%. It also gave a residual activity [19] of 104%, a residual activity [20] of 99.1% and a residual activity [21] of 96%. It also gave a residual activity [22] of 99.2%, a residual activity [23] of 90.1% and a residual activity [24] of 86.1%. The residual activity [25] was 101%, the residual activity [26] was 101% and the residual activity [27] was 97.2%. The residual activity [28] was 101%, the residual activity [29] was 95.1% and the residual activity [30] was 104%. For the same compound, the residual activity [31] was 95.9%, the residual activity [32] was 97.6% and the residual activity [33] was 81.4%. The residual activity [34] was 92%, the residual activity [35] was 94.8% and the residual activity [36] was 102%. The residual activity [37] was 103%, the residual activity [38] was 88.5% and the residual activity [39] was 99.9%. The residual activity [40] was 83.3% and the residual activity [41] was 85.1%.
